Experimental data reported in patent US20080292580A1, “Treatment of Inflammatory Diseases” (UNIVERSITY COLLEGE LONDON HOSPITALS NHS FOUNDATION, priority 2004, published 2008).

Test system: normal mice
Test: Toxic effects of PEG-saline infusion in normal mice
Conditions: mouse, in vivo
Description: In this example, the toxic effects of high molecular weight polyethylene glycol at high concentrations were compared to the effects of low molecular weight polyethylene glycol at even higher concentrations.
Normal mice, which were not subjected to zymozan or lipopolysaccharide injections, were infused (25 ml/kg) with either PEG-200-saline solution at a PEG-200 concentration of 100 mg/ml or PEG-4000-saline solution at a PEG-4000 concentration of 30 mg/ml.

polyethylene glycol [PEG 200-saline]
survival of normal mice: survived
